From patent US12422427B2, “Compounds for treatment of diseases and methods of screening therefor” (Max-Planck-Gesellschaft zur Förderung der Wissenschaften …, priority 2018, dated 2025)

Target: T1, FUS low complexity domain (residues 1 to 163) (Homo sapiens, UniProt P35637)
T1 construct: untagged FUS low complexity domain (residues 1 to 163) expressed, purified and analysed; made in house
T1 sequence (P35637 1-163): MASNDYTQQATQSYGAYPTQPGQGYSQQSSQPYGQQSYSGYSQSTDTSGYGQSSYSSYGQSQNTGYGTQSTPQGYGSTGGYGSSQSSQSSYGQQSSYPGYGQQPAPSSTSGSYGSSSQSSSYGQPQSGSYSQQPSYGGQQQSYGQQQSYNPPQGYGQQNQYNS
Assay: 1H-15N HSQC NMR of FUS low complexity domain with compound
Format: binding
Conditions: 500 μM compound
Description: Finally, mechanistic detail was analyzed at the sub-molecular level by using NMR of the FUS prion-like N-terminal LCD to determine putative sites of lipoamide interaction. The LCD is able to phase separate to form condensates in vitro and the individual residues can be resolved and assigned in a ^1H-^15N heteronuclear single quantum coherence spectrum. ^1H-^15N analyses reveal a change in environment of individual residues as indicated by their corresponding chemical shifts. The magnitude of chemical shift changes were compared with and without both lipoamide or mitoxantrone. […] This leaves several possibilities: Perhaps lipoamide interacts with the FUS LCD only when phase separated, potentially reducing viscosity, or interacts with the condensate phase boundary, perhaps increasing surface tension. Such interactions may reduce formation or expansion of aggregated forms of FUS involved in condensate hardening and reduced liquidity.
For analysis of compound interaction with FUS untagged FUS low complexity domain (residues 1 to 163) expressed, purified and analysed using ^1H-^15N heteronuclear single quantum coherence NMR and sample conditions previously described^14 in the presence of 500 μM compound or equivalent DMSO solvent control (1%).

chemical shift changes of FUS LCD residues: no single, clear sites of interaction
SMILES: NC(=O)CCCCC1CCSS1 (racemic) [lipoamide, 5-(1,2-dithiolan-3-yl)pentanamide]
